Experimental data as given in patent publication US20260137701A1, “CHOLESTENOIC ACID (CA) AND A SULFATED DERIVATIVE THEREOF, 3[BETA]-SULFATE-5-CHOLESTENOIC ACID (CA3S), AS ENDOGENOUS EPIGENETIC REGULATORS” (priority 2022, published 2026).
Several values for one entry are separate records, joined by “and”; a condition that tells them apart may be missing. Equal values may be shown once.

System: HepG-2 cells
Assay: Whole genome bisulfite sequencing (WGBS), differentially methylated regions
Type: cell-based, human
Conditions: for number of DMRs, whole genome, hyper-methylated / number of DMRs, whole genome, hypo-methylated / number of DMRs, whole genome, total: 20 μM CA vs vehicle
Experimental: After culturing HepG-2 cells in DMEM medium with HG for 72 hours followed by treating with 20 μM CA for 0, 3, 6, 12, and 24 hours, genomic DNA from 5×10^7 cells were extracted using QIAamp® DNA Mini Kit (QIAGEN, Hilden, Germany). Each sample, 6 μg, was sent to CD Genomics Co., Ltd (New York, USA) for analysis of WGBS. Total RNA was isolated using the Promega SV total RNA isolation system (Madison, WI, USA) with DNase treatment. Each sample, 2 μg, were sent to CD Genomics Co., Ltd (New York, USA) for analysis of RNA sequencing. The same samples, 2 μg, was used for the first-strand cDNA synthesis as recommended by the manufacturer (Invitrogen, Carlsbad, CA). RT-qPCR was performed using SYBR Green as the indicator on ABI 7500 Fast Real-Time PCR System (Applied Biosystems, Foster City, CA). Amplifications of j-actin or GAPDH were used as internal controls. Relative messenger RNA (mRNA) expression was quantified with the comparative cycle threshold (Ct) method using a sutiable primer set and was expressed as 2-ΔΔCt as described previously.
Each sample, 1 μg of genomic DNA was fragmented by sonication to a mean size of approximately 200-400 bp, and subsequently used for WGBS library construction using Acegen Bisulfite-Seq Library Prep Kit (Acegen) following the manufacturer's instructions. The methylated adapter-ligated DNAs were purified using 0.8×Agencourt AMPure™ XP magnetic beads and subjected to bisulfite conversion by ZYMO EZ DNA Methylation-Gold™ Kit (Zymo Research Corporation, CA, USA). The converted DNAs were then amplified using 25 μl KAPA HiFi™ HotStart Uracil+ ReadyMix (2×) and 8-bp index primers with a final concentration of 1 μM each. The constructed WGBS libraries were then analyzed by Agilent 2100 Bioanalyzer and quantified by a Qubit fluorometer with Quant-iT™ dsDNA HS Assay Kit (Invitrogen), and finally sequenced on Illumina® Hiseq X™ Ten sequencer. After the preparation of the library, Qubit 2.0 and Agilent 2100 were used respectively to detect the concentration of the library and the Insert Size, and the effective concentration (>2 nM) of the library was quantitatively determined by Q-PCR to ensure the library quality.
Samples were sequenced using the Illumina® HiSeq sequencing platform. Raw data generated on the sequencing platform contained a small percentage of low-quality data, which was then filtered to get high-quality data. Bsmap software was used to perform alignments of bisulfite-treated reads to a reference genome (GRCh37). Metilene software was used to identify differentially methylated regions (DMRs). DAVID software (website located at david.ncifcrf.gov/) was used to test the statistical enrichment of DMR related genes in the Gene Ontology (GO) and Kyoto Encyclopedia of Genes and Genomes (KEGG) pathways.

Structure (SMILES): CC(CCC[C@@H](C)[C@H]1CC[C@H]2[C@@H]3CC=C4C[C@@H](O)CC[C@]4(C)[C@H]3CC[C@]12C)C(=O)O (stereo partly drawn) [CA, 3β-hydroxy-5-cholestenoic acid]
- number of DMRs, whole genome, hyper-methylated (3 hours): 11,818
- number of DMRs, whole genome, hypo-methylated (3 hours): 215,747
- number of DMRs, whole genome, total (3 hours): 227,565
- number of DMRs, whole genome, hyper-methylated (6 hours): 10,537
- number of DMRs, whole genome, hypo-methylated (6 hours): 497,685
- number of DMRs, whole genome, total (6 hours): 508,222
- number of DMRs, whole genome, hyper-methylated (12 hours): 14,658
- number of DMRs, whole genome, hypo-methylated (12 hours): 544,916
- number of DMRs, whole genome, total (12 hours): 559,574
- number of DMRs, whole genome, hyper-methylated (24 hours): 8,808
- number of DMRs, whole genome, hypo-methylated (24 hours): 679,051
- number of DMRs, whole genome, total (24 hours): 687,859
- DMR (Methylation %) ADRA1A promoter region (20 μM CA, 3 h): −30.28%
- DMR (Methylation %) ADRA1B promoter region (20 μM CA, 3 h): 0%
- DMR (Methylation %) ADRA1 promoter region (20 μM CA, 3 h): −30.28%
- DMR (Methylation %) BCL6 promoter region (20 μM CA, 3 h): −20.42%
- DMR (Methylation %) CACNA1D promoter region (20 μM CA, 3 h): −55.12%
- DMR (Methylation %) CALML3 promoter region (20 μM CA, 3 h): −27.06% and −27.05%
- DMR (Methylation %) CALML4 promoter region (20 μM CA, 3 h): −21.08%
- DMR (Methylation %) CAMKK2 promoter region (20 μM CA, 3 h): 0%
- DMR (Methylation %) COX7B promoter region (20 μM CA, 3 h): −30.9%
- DMR (Methylation %) COX8A promoter region (20 μM CA, 3 h): −25.87%
- DMR (Methylation %) CPT1C promoter region (20 μM CA, 3 h): −18.8%
- DMR (Methylation %) CREB3L4 promoter region (20 μM CA, 3 h): 0%
- DMR (Methylation %) CYP1A1 promoter region (20 μM CA, 3 h): −30.07%
- DMR (Methylation %) ESR2 promoter region (20 μM CA, 3 h): 0%
- DMR (Methylation %) FBP1 promoter region (20 μM CA, 3 h): 0%
- DMR (Methylation %) FGF1 promoter region (20 μM CA, 3 h): −54.6%
- DMR (Methylation %) FGF8 promoter region (20 μM CA, 3 h): −19.97%
- DMR (Methylation %) FGFR2 promoter region (20 μM CA, 3 h): −26.28%
- DMR (Methylation %) LDHA promoter region (20 μM CA, 3 h): −29.00%
- DMR (Methylation %) LDHAL6A promoter region (20 μM CA, 3 h): 0%
- DMR (Methylation %) LDHC promoter region (20 μM CA, 3 h): −20.18%
- DMR (Methylation %) LEP promoter region (20 μM CA, 3 h): 0%
- DMR (Methylation %) MIR29A promoter region (20 μM CA, 3 h): −15.46%
- DMR (Methylation %) MIRLET7B promoter region (20 μM CA, 3 h): 0%
- DMR (Methylation %) MTOR promoter region (20 μM CA, 3 h): −20.34%
- DMR (Methylation %) NTRK3 promoter region (20 μM CA, 3 h): 0%
- DMR (Methylation %) PDHA2 promoter region (20 μM CA, 3 h): 0%
- DMR (Methylation %) PDHB promoter region (20 μM CA, 3 h): −21.86%
- DMR (Methylation %) PHKG1 promoter region (20 μM CA, 3 h): −15.73%
- DMR (Methylation %) PPARG promoter region (20 μM CA, 3 h): 0%
- DMR (Methylation %) SDHA promoter region (20 μM CA, 3 h): 0%
- DMR (Methylation %) SDHB promoter region (20 μM CA, 3 h): 0%
- DMR (Methylation %) SPHK2 promoter region (20 μM CA, 3 h): 0%
- DMR (Methylation %) UQCRC1 promoter region (20 μM CA, 3 h): −23.76%
- DMR (Methylation %) VDAC2 promoter region (20 μM CA, 3 h): −27.41%
- number of DMRs in promoter region, hyper-methylated (20 μM CA, 3 hours): 2,323
- number of DMRs in promoter region, hypo-methylated (20 μM CA, 3 hours): 12,431
- number of DMRs in promoter region, total (20 μM CA, 3 hours): 14,754
- DMR (Methylation %) ADRA1A promoter region (20 μM CA, 6 h): −41.25%
- DMR (Methylation %) ADRA1B promoter region (20 μM CA, 6 h): −33.89%
- DMR (Methylation %) ADRA1 promoter region (20 μM CA, 6 h): −41.25%
- DMR (Methylation %) BCL6 promoter region (20 μM CA, 6 h): −43.30%
- DMR (Methylation %) CACNA1D promoter region (20 μM CA, 6 h): −69.06% and −69.10%
- DMR (Methylation %) CALML3 promoter region (20 μM CA, 6 h): −47.29%
- DMR (Methylation %) CALML4 promoter region (20 μM CA, 6 h): −31.79%
- DMR (Methylation %) CAMKK2 promoter region (20 μM CA, 6 h): −37.97%
- DMR (Methylation %) COX7B promoter region (20 μM CA, 6 h): −83.31%
- DMR (Methylation %) COX8A promoter region (20 μM CA, 6 h): −35.3%
- DMR (Methylation %) CPT1A promoter region (20 μM CA, 6 h): −41.69%
- DMR (Methylation %) CPT1C promoter region (20 μM CA, 6 h): −34.41%
- DMR (Methylation %) CREB3L4 promoter region (20 μM CA, 6 h): −36.38%
- DMR (Methylation %) CYP1A1 promoter region (20 μM CA, 6 h): −55.38%
- DMR (Methylation %) ESR2 promoter region (20 μM CA, 6 h): −33.80%
- DMR (Methylation %) FBP1 promoter region (20 μM CA, 6 h): −39.18%
- DMR (Methylation %) FGF1 promoter region (20 μM CA, 6 h): −37.79%
- DMR (Methylation %) FGF8 promoter region (20 μM CA, 6 h): −53.29%
- DMR (Methylation %) FGFR2 promoter region (20 μM CA, 6 h): −47.13%
- DMR (Methylation %) LDHA promoter region (20 μM CA, 6 h): −35.80%
- DMR (Methylation %) LDHAL6A promoter region (20 μM CA, 6 h): −38.96%
- DMR (Methylation %) LDHC promoter region (20 μM CA, 6 h): −31.45%
- DMR (Methylation %) LEP promoter region (20 μM CA, 6 h): −35.18%
- DMR (Methylation %) MIR29A promoter region (20 μM CA, 6 h): −32.98%
- DMR (Methylation %) MIRLET7B promoter region (20 μM CA, 6 h): −34.85%
- DMR (Methylation %) MTOR promoter region (20 μM CA, 6 h): −37.3%
- DMR (Methylation %) NTRK3 promoter region (20 μM CA, 6 h): −49.89%
- DMR (Methylation %) PDHA2 promoter region (20 μM CA, 6 h): −39.34%
- DMR (Methylation %) PDHB promoter region (20 μM CA, 6 h): −42.31%
- DMR (Methylation %) PHKG1 promoter region (20 μM CA, 6 h): −41.81%
- DMR (Methylation %) PPARG promoter region (20 μM CA, 6 h): −37.32%
- DMR (Methylation %) SDHA promoter region (20 μM CA, 6 h): −37.82%
- DMR (Methylation %) SDHB promoter region (20 μM CA, 6 h): −39.54%
- DMR (Methylation %) SPHK2 promoter region (20 μM CA, 6 h): −60.87%
